Test results from US11365188B2, “JAK inhibitors” (priority 2018, dated 2022).
pIC50: −log10 of the molar value.

Legend:
Assay type in all cases: biochemical
JAK1 = JAK1 (Homo sapiens, UniProt P23458); assay: JAK Kinase Assay (JAK1, Caliper EZ Reader, fluoresceinated peptide); conditions: ATP 76.5 μM; JAK1 10 nM; 120 minutes at room temperature; read-out: JAK1 inhibition
Protocol: JAK Kinase Assay 384-well plates in the left foot butoxy measured progress. The final assay volume was 25 μL, 250 nL 100× compounds, 10 μL enzyme mix and 15 μL substrate mix (fluoresceinated peptide and ATP) in assay buffer (20 mM HEPES (pH 7.5), 10 mM MgCl2, […], 0.5 mM EGTA and 2 mM DTT) prepared as test compound. By mixing the JAK1 with substrates and test compounds to start the reaction. There action mixture was incubated for 120 minutes at room temperature, then added 30 μL stop buffer for each sample to terminate the reaction with 50 mM EDTA. After termination of the kinase reaction, the proportion of phosphorylated product was determined as a fraction of total peptide substrate using Caliper EZ Reader II. Inhibition data were calculated by comparison with 100% of the reaction mixture without enzyme inhibition and vehicle-only reaction mixture billion % inhibition compared. The final concentration of reagents in the assays is: ATP, 76.5 μM; JAK1 fluorescent peptide (5-FAM-EEPLYWSFPAKKK-CONH2), 3 μM; JAK1, 10 nM, and DMSO, 1%. Dose response curve were generated to determine the concentration required for IC50 of JAK activity.

JAK3 = biological target: T1, JAK3 (Homo sapiens, UniProt P52333); assay: JAK3 Assay (Caliper EZ Reader, fluoresceinated peptide); conditions: ATP 3.5 μM; JAK3 0.5 nM; 30 minutes at room temperature; read-out: JAK3 inhibition
T1 sequence (P52333 1-1124): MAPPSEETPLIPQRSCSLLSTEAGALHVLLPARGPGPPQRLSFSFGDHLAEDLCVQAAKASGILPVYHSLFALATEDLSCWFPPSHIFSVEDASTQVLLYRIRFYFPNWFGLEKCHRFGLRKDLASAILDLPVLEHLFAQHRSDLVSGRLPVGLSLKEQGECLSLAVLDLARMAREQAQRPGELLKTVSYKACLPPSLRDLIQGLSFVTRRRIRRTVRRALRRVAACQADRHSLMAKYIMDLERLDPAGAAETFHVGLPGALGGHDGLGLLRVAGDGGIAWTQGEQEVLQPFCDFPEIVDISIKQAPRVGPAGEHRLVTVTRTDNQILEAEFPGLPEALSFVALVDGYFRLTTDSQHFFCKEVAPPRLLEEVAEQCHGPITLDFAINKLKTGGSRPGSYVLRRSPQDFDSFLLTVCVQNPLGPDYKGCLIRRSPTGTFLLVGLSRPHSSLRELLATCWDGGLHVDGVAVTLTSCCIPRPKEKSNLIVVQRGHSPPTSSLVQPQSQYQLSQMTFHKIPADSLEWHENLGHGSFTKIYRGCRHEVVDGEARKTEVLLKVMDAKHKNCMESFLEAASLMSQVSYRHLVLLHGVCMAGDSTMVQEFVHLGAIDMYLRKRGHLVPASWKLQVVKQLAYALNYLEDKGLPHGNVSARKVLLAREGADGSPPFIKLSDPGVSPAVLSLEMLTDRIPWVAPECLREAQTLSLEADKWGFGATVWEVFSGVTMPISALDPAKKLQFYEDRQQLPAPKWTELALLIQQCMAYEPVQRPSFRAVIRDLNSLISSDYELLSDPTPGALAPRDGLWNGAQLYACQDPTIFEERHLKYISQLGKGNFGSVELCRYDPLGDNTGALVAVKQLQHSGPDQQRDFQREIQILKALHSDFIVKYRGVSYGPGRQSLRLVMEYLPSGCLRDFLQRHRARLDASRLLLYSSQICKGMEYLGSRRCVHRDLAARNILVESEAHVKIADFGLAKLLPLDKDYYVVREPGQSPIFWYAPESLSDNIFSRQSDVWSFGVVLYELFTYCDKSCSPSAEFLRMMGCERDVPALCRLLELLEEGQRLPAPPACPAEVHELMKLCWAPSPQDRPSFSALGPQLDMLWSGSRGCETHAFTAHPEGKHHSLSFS
Protocol: JAK3 Assay 384-well plates in the left foot butoxy measured progress. The final assay volume was 25 μL, 250 nL 100× compounds, 10 μL enzyme mix and 15 μL substrate mix (fluoresceinated peptide and ATP) in assay buffer (50 mM HEPES (pH 7.5), 10 mM MgCl2, 0.01% TritonX-100, 0.01% Brij35, 0.5 mM EGTA and 2 mM DTT) prepared as test compound. By mixing the JAK3 with substrates and test compounds to start the reaction. The reaction mixture was incubated for 30 minutes at room temperature, then added 30 μL stop buffer for each sample to terminate the reaction with 50 mM EDTA. After termination of the kinase reaction, the proportion of phosphorylated product was determined as a fraction of total peptide substrate using Caliper EZ Reader II. Inhibition data were calculated by comparison with 100% of the reaction mixture without enzyme inhibition and vehicle-only reaction mixture billion % inhibition compared. The final concentration of reagents in the assays is: ATP, 3.5 μM; JAK3 fluorescent peptide (5-FAM-EEPLYWSFPAKKK-CONH2), 3 μM; JAK3, 0.5 nM; and DMSO, 1%. Dose response curve were generated to determine the concentration required for IC50 of JAK3 activity.

JAK2 = JAK2 (Homo sapiens, UniProt O60674); assay: JAK2 Assay (Caliper EZ Reader, fluoresceinated peptide); conditions: ATP 11.4 μM; JAK2 0.25 nM; 15 minutes at room temperature; read-out: JAK2 inhibition
Chain of JAK2 (O60674 whole entry, species assumed): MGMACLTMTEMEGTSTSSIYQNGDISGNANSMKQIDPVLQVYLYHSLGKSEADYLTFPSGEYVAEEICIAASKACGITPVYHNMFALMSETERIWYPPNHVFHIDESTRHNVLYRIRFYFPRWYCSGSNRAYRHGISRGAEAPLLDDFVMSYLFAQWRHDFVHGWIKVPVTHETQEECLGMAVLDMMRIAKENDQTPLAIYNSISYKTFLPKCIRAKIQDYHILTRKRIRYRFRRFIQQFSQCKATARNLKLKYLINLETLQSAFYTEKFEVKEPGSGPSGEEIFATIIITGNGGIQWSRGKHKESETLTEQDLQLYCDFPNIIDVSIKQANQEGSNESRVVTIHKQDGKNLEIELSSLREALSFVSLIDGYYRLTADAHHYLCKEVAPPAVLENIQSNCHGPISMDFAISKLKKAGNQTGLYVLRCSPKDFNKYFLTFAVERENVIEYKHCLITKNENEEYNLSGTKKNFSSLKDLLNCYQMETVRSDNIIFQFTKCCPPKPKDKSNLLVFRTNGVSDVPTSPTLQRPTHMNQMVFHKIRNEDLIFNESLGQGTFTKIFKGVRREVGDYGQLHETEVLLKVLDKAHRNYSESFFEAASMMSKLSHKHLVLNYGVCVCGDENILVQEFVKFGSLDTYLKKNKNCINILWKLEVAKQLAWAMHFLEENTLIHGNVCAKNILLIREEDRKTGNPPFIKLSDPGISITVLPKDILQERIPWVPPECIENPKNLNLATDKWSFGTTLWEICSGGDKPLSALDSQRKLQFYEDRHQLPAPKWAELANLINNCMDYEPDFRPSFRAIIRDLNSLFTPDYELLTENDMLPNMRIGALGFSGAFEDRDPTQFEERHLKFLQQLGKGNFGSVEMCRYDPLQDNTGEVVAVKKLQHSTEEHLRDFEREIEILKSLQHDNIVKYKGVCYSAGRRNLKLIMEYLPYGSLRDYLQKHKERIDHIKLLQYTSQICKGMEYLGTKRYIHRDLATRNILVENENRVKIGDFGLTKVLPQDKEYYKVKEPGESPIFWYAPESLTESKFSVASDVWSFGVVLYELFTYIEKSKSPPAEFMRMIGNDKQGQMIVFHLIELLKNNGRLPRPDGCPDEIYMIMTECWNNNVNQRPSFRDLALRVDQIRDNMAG
Protocol: JAK2 Assay 384-well plates in the left foot butoxy measured progress. The final assay volume was 25 μL, 250 nL 100× compounds, 10 μL enzyme mix and 15 μL substrate mix (fluoresceinated peptide and ATP) in assay buffer (50 mM HEPES (pH 7.5), 10 mM MgCl2, 0.01% TritonX-100, 0.01% Brij35, 0.5 mM EGTA and 2 mM DTT) prepared as test compound By mixing the JAK2 with substrates and test compounds to start the reaction. The reaction mixture was incubated for 15 minutes at room temperature, then added 30 μL stop buffer for each sample to terminate the reaction with 50 mM EDTA. After termination of the kinase reaction, the proportion of phosphorylated product was determined as a fraction of total peptide substrate using Caliper EZ Reader 1 Inhibition data were calculated by comparison with 100% of the reaction mixture without enzyme inhibition and vehicle-only reaction mixture billion % inhibition compared. The final concentration of reagents in the assays is: ATP, 11.4 μM; JAK2 fluorescent peptide (5-FAM-EEPLYWSFPAKKK-CONH2), 3 μM; JAK2, 0.25 nM; and DMSO, 1%. Dose response curve were generated to determine the concentration required for IC50 of JAK2 activity.

Chain of JAK1 (P23458 whole entry, species assumed): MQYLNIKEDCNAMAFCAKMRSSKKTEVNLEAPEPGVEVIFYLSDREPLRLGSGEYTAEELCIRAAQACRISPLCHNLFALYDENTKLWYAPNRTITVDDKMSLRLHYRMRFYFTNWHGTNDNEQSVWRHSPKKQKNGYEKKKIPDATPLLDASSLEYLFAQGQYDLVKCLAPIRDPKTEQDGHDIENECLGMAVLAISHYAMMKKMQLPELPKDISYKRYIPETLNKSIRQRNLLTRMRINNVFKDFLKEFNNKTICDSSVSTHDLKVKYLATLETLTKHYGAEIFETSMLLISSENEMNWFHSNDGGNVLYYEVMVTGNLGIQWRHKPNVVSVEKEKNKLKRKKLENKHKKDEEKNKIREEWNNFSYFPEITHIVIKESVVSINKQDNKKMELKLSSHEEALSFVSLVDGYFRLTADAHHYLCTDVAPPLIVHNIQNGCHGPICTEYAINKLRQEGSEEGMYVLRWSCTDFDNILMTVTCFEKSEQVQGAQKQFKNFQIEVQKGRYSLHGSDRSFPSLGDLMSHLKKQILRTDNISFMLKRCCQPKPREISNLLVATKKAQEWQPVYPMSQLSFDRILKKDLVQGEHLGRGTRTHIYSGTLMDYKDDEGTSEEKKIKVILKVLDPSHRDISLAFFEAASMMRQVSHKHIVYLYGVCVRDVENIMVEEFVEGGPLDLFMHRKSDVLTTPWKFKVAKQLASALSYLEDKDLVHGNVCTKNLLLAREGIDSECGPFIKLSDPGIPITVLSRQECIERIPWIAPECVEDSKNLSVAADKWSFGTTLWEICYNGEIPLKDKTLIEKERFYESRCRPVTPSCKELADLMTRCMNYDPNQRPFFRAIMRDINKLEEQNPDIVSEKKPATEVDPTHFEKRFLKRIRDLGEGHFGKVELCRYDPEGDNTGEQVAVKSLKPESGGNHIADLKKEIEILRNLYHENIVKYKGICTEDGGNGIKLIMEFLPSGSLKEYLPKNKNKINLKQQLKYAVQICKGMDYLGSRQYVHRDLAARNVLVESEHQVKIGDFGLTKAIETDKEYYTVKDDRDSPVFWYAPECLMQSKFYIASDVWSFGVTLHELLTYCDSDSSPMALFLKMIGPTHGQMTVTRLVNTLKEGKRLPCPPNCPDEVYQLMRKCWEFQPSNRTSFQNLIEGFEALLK

| pIC50 (JAK1) | pIC50 (JAK3) | pIC50 (JAK2) | SMILES |
| --- | --- | --- | --- |
| 7.00 to 8.00 | 5.00 to 6.00 | 6.00 to 7.00 | CN(c1ncnc2[nH]ccc12)C1CC2(C1)CN(C(=O)C1(C#N)CC1)C2 [Compound 19, 1-(6-(methyl(7H-pyrrolo[2,3-d]pyrimidin-4-yl)amino)-2-azaspiro[3.3]heptane-2-carbonyl)cyclopropanecarbonitrile] |
| 6.00 to 7.00 | ≤ 5.00 | ≤ 5.00 | CN(c1ncnc2[nH]ccc12)C1CC2(C1)CN(C(=O)c1ccn(C)n1)C2 [Compound 50, (6-(methyl(7H-pyrrolo[2,3-d]pyrimidin-4-yl)amino)-2-azaspiro[3.3]heptan-2-yl)(1-methyl-1H-pyrazol-3-yl)methanone] |
| ≥ 8.00 | 5.00 to 6.00 | 6.00 to 7.00 | C#Cc1ccc(C(=O)N2CC3(CC(N(C)c4ncnc5[nH]ccc45)C3)C2)cc1F [Compound 47, (4-ethynyl-3-fluorophenyl)(6-(methyl(7H-pyrrolo[2,3-d]pyrimidin-4-yl)amino)-2-azaspiro[3.3]heptan-2-yl)methanone] |
| 7.00 to 8.00 | 5.00 to 6.00 | 6.00 to 7.00 | CN(c1ncnc2[nH]ccc12)C1CC2(C1)CN(C(=O)CCC#N)C2 [Compound 10, 4-(6-(methyl(7H-pyrrolo[2,3-d]pyrimidin-4-yl)amino)-2-azaspiro[3.3]heptan-2-yl)-4-oxobutanenitrile] |
| 6.00 to 7.00 | 6.00 to 7.00 | 6.00 to 7.00 | CN(c1ncnc2[nH]ccc12)C1CCC2(CC1)CCN(C(=O)c1csc3ccccc13)CC2 [Compound 92, Benzo[b]thiophen-3-yl-{9-[methyl-(7H-pyrrolo[2,3-d]pyrimidin-4-yl)-amino]-3-aza-spiro[5.5]undec-3-yl}-methanone] |
| 7.00 to 8.00 | 5.00 to 6.00 | 5.00 to 6.00 | Cc1cc(C(=O)N2CC3(CC(N(C)c4ncnc5[nH]ccc45)C3)C2)ccc1C#N [Compound 34, 2-methyl-4-(6-(methyl(7H-pyrrolo[2,3-d]pyrimidin-4-yl)amino)-2-azaspiro[3.3]heptane-2-carbonyl)benzonitrile] |
| 7.00 to 8.00 | 5.00 to 6.00 | 6.00 to 7.00 | CN(c1ncnc2[nH]ccc12)C1CC2(C1)CN(C(=O)CCC(F)(F)F)C2 [Compound 21, 4,4,4-trifluoro-1-(6-(methyl(7H-pyrrolo[2,3-d]pyrimidin-4-yl)amino)-2-azaspiro[3.3]heptan-2-yl)butan-1-one] |
| ≥ 8.00 | 5.00 to 6.00 | 6.00 to 7.00 | C#Cc1ccc(C(=O)N2CC3(CC(N(C)c4ncnc5[nH]ccc45)C3)C2)cc1C [Compound 40, (4-ethynyl-3-methylphenyl)(6-(methyl(7H-pyrrolo[2,3-d]pyrimidin-4-yl)amino)-2-azaspiro[3.3]heptan-2-yl)methanone] |
| 7.00 to 8.00 | 5.00 to 6.00 | 6.00 to 7.00 | CN(c1ncnc2[nH]ccc12)C1CCC2(CC1)CCN(C(=O)C1CC1)CC2 [Compound 99, Cyclopropyl-{9-[methyl-(7H-pyrrolo[2,3-d]pyrimidin-4-yl)-amino]-3-aza-spiro[5.5]undec-3-yl}-methanone] |
| ≥ 8.00 | 5.00 to 6.00 | 7.00 to 8.00 | CC#Cc1ccc(C(=O)N2CC3(CC(N(C)c4ncnc5[nH]ccc45)C3)C2)cc1 [Compound 42, (6-(methyl(7H-pyrrolo[2,3-d]pyrimidin-4-yl)amino)-2-azaspiro[3.3]heptan-2-yl)(4-(prop-1-yn-1-yl)phenyl)methanone] |
| 6.00 to 7.00 | 5.00 to 6.00 | 5.00 to 6.00 | CN(c1ncnc2[nH]ccc12)C1CC2(C1)CN(C(=O)c1ccc(-c3ccn(C)n3)cc1)C2 [Compound 68] |
| 7.00 to 8.00 | 6.00 to 7.00 | 6.00 to 7.00 | CN(c1ncnc2[nH]ccc12)C1CCC2(CC1)CCN(S(=O)(=O)CC(F)(F)F)CC2 [Compound 103, Methyl-(7H-pyrrolo[2,3-d]pyrimidin-4-yl)-[3-(2,2,2-trifluoro-ethanesulfonyl)-3-aza-spiro[5.5]undec-9-yl]-amine] |
